Patent publication US9801858B2, “Progress-supressing or improving agent for chronic kidney disease” (NIPPON ZOKI PHARMACEUTICAL CO., LTD., priority 2014, dated 2017)
Entries after “also recorded” stand apart in the source; their conditions may differ. Read-outs that look alike come from different tables or passages of the source.

Key:
[1] = test system: patients with diabetic CRF; settings: cited from earlier work
[2] = test system: rats with chronic renal failure; settings: adenine-induced chronic renal failure; cited from earlier work
[3] = test system: patients with CKD (rapidly-progressive and slowly-progressive); assay: new clinical tests: investigational drug orally once daily for 24 weeks, CKD stage 3 or 4; format: in vivo, human; settings: for progress of worsening of the renal function (inclination of regression line to 1/sCr, before vs after): 24 weeks
From the text: During such a period, a good idea has occurred that the effect of the present compound is investigated after dividing the patients with CKD into groups where worsening of the renal function is rapid and is not. As a result, the patients with CKD were divided into a group where changes in the reciprocal sCr value (1/sCr) per month before administration of the test drug are 0.01 dL/mg or more and worsening of the renal function is rapidly progressing (hereinafter, that will be referred to as “rapidly progressive CKD patients”) and another group where said changes are less than 0.01 dL/mg (hereinafter, that will be referred to as “slowly progressive CKD patients”) and clinical tests comparing the effect of the present compound were carried out. (Hereinafter, that will be referred to as “new clinical tests”.) Such a yardstick where the changes in the reciprocal sCr value are 0.01 dL/mg or more followed the yardstick adopted in the application of “Kremezin (Registered Trade Mark)” which is the above-mentioned spherical adsorptive carbon preparation. Further, in the new clinical tests, dose of the present compound was increased to some extent so as to find the difference from the results in the old clinical tests. Summary and result of the new clinical tests will be mentioned as follows.
A clinical test for evaluating the efficacy and the safety of the present compound was conducted using the patients where the CKD stage was 3 or 4 as the object. Persons who meet the following selection criteria were selected from the patients who were diagnosed as CKD and receiving a conservation therapy. • Sex is withdrawn from the consideration. Pregnant women and mothers suckling a baby are however excluded. • Age is from 20 to 75 years old. • GFR value is 15 to 59. • Patients where the serum creatinine (sCr) value is within a range of 1.5 to 5.0 mg/dL at the start of the test, the measuring frequencies from 52 weeks before the test until the start of the test are thrice or more and the difference in the tested values in the initial and the final stages is 0.2 mg/dL or more (showing a rise). • Patients where a therapy with a pharmaceutical agent which is thought to suppress the progress of CKD (such as a spherical adsorptive carbon preparation) or a diet therapy is newly started during three month before the start of the test are excluded. • Moreover, patients having a symptom of cerebrovascular disturbance, patients with infectious disease and patients with peptic ulcer are excluded.
After that, the objects were divided into the rapidly-progressive CKD patients and slowly-progressive CKD patients.
As a result, in the new clinical tests, the groups to which the tablets containing the present compound as an active ingredient (test drug) are administered and to which the tablets containing no active ingredient though being undistinguishable from the test drug are divided into six groups in total. Thus, they are three groups for slowly-progressive CKD patients comprising a placebo-administered group, a 800 mg test drug-administered group and a 1600 mg test drug-administered group and other three groups for a rapidly-progressive CKD patients comprising a placebo-administered, a 800 mg test drug-administered group and a 1600 mg test drug-administered group whereby there are six groups in total. The weight mentioned hereinabove is a weight of the present compound contained in the test drug and is a dose for one day. […]

CN1C(=O)NC(=O)C1O (stereo not shown) [the present compound, 5-hydroxy-1-methylhydantoin]
inclination of the regression line of 1/sCr versus time ([1]; 200 mg/day group (n=11), after the administration (24 weeks), mean±S.D., p=0.01, Non-Patent Document 2): −0.00046±0.00043 | inclination of the regression line of 1/sCr versus time ([1]; 200 mg/day group (n=11), before the administration, mean±S.D., Non-Patent Document 2): −0.00075±0.00066 | inclination of the regression line of 1/sCr versus time ([1]; 200 mg/day group (n=12), after the administration, p=0.016, Non-Patent Document 1): −0.0004±0.00047 | inclination of the regression line of 1/sCr versus time ([1]; 200 mg/day group (n=12), before the administration, Non-Patent Document 1): −0.00078±0.00064 | inclination of the regression line of 1/sCr versus time ([1]; 400 mg/day group (n=11), after the administration (24 weeks), mean±S.D., p=0.02, Non-Patent Document 2): −0.00066±0.00097 | inclination of the regression line of 1/sCr versus time ([1]; 400 mg/day group (n=11), after the administration, p=0.024, Non-Patent Document 1): −0.00068±0.00096 | inclination of the regression line of 1/sCr versus time ([1]; 400 mg/day group (n=11), before the administration, Non-Patent Document 1): −0.00098±0.00077 | inclination of the regression line of 1/sCr versus time ([1]; 400 mg/day group (n=11), before the administration, mean±S.D., Non-Patent Document 2): −0.00098±0.00077 | side effect in the clinical test and in the clinical symptom ([1]; 200 or 400 mg/day orally for 24 weeks): No critical side effect | accumulation of the pharmaceutical agent ([1]; during the course of the clinical test, 200 or 400 mg/day for 24 weeks): no accumulation | action on uremic toxin such as urea nitrogen and creatinine [2]: action of lowering the uremic toxin | progress of worsening of the renal function (inclination of regression line to 1/sCr, before vs after) ([3]; 800 mg/day, rapidly-progressive CKD patients (five test subjects), Dunnett test): significantly suppressed or improved; also recorded: a downward-sloping inclination becomes somewhat upward rather than moderate | progress of worsening of the renal function (inclination of regression line to 1/sCr, before vs after) ([3]; 800 mg/day, slowly-progressive CKD patients): No such an effect was achieved | progress of worsening of the renal function (inclination of regression line to 1/sCr, before vs after) ([3]; 1600 mg/day, rapidly-progressive CKD patients): a certain effect was noted in a rapidly-progressive CKD patient but the effect was not so significant | progress of worsening of the renal function (inclination of regression line to 1/sCr, before vs after) ([3]; 1600 mg/day, slowly-progressive CKD patients): No effect was noted | side effect / safety ([3]; all cases including the 1600 mg/day-administered group, 24 weeks oral): almost no side effect is noted; also recorded: no critical side effect becoming a problem is observed
